Assay results reported in patent US11649475B2, “Dioxetane compounds and their use for the detection of microorganisms” (NEMIS Technologies AG, priority 2018, dated 2023).

Assays:
[1] = system: Listeria innocua (6a) ATCC 33090; experiment: Luminescence of culture samples after addition of Compound IIIa; type: cell-based; conditions: L.i., inoculation density 10^5 CFU/mL, 6 h cultivation, 10 μM
Method: (§1) Similar cell concentrations of all strains were inoculated in triplicate test tubes with M52 broth. In addition, further dilutions of L.m. 2 cells in sterile saline were inoculated in triplicate test tubes. Sterile saline was added to negative control tubes. […] Final concentration of Compound IIIa was 10 μM, final concentration of dimethyl sulfoxide was 1% v/v. Light emission was recorded with a plate reader equipped with a luminescence detection system. […] It was possible to detect 10^3 CFU/mL of Listeria monocytogenes after 6 h of incubation as indicated by a signal-to-noise ratio of 2 relative to sterile controls.

[2] = system: Escherichia coli ATCC 25922; experiment: as above; type: cell-based; conditions: E.c., inoculation density 10^5 CFU/mL, 6 h cultivation, 10 μM
Method: as §1

[3] = system: Listeria monocytogenes ATCC 7644; experiment: as above; type: cell-based; conditions: L.m. 1, inoculation density 10^5 CFU/mL, 6 h cultivation, 10 μM
Method: as §1

[4] = system: Listeria monocytogenes (4b) ATCC 19115; experiment: as above; type: cell-based; conditions: 6 h cultivation, 10 μM; for Mean RLU (n = 3): 16-20 min after addition
Method: as §1

[5] = system: phosphatidylinositol-specific phospholipase C (PI-PLC); experiment: Enzymatic assay of PI-PLC activity with Compound IIIa; type: biochemical; conditions: for RLU: PBS pH 7.4, 1% v/v DMSO
Method: Varying concentrations of phosphatidylinositol-specific phospholipase C (PI-PLC) were added and luminescence was recorded at room temperature (Table 4). Assays were performed in a white microtiter plate with 0.25 mL total liquid volume.

[6] = system: glucose; experiment: Detection of glucose in Escherichia coli culture supernatant with compound VIa and glucose oxidase; type: biochemical; conditions: 40 μM compound VIa in HEPES buffer pH 7.0, 1 mg/mL glucose oxidase, 20 min
Method: Cells were separated from culture supernatant by centrifugation (13'000×g, 2 min). […] A second negative control also contained 5 mM glucose, but no glucose oxidase. Culture supernatant with and without glucose (0.1 mL) was mixed in a white microtiter plate with 0.1 mL of HEPES buffer (100 mM, pH 7.0) containing 40 μM of compound VIa, reacting with hydrogen peroxide) and 1 mg/mL commercially available glucose oxidase from Aspergillus niger. […] Presence of glucose lead to continuously increasing luminescence when compound Via and glucose oxidase were also present.

[7] = system: Salmonella Enteritidis RKI 05/07992; experiment: Luminescence of culture samples after addition of Compound IIa; type: cell-based, Salmonella enterica ssp. enterica ser. Enteritidis; conditions: for Signal to noise ratio (to sterile) / Mean RLU (n = 3): 6 h cultivation, 10 μM; for Mean RLU (n = 3): 27-30 min after addition
From the text: (§2) Citrobacter freundii ATCC 8090 (C.f., […] negative), Escherichia coli ATCC 25922 (E.c., […] negative), Salmonella Typhimurium (D) ATCC […]., Salmonella enterica ssp. I ser. Typhimurium, […] positive), Salmonella Enteritidis (D) ATCC […]. 1, Salmonella enterica ssp. enterica ser. Enteritidis, […] positive) and Salmonella Enteritidis RKI 05/[…]. 2, Salmonella enterica ssp. enterica ser. […] Similar cell concentrations of all strains were inoculated in triplicate test tubes with Nutrient Broth. […] Sterile saline was added to negative control tubes. […] Final concentration Compound IIa was 10 μM, final concentration of dimethyl sulfoxide was […]. Light emission was recorded with a plate reader equipped with a luminescence detection system.

[8] = system: Salmonella Enteritidis (D) ATCC 13076; experiment: as above; type: cell-based, Salmonella enterica ssp. enterica ser. Enteritidis; conditions: S.E. 1, inoculation density 10^5 CFU/mL, 6 h cultivation, 10 μM
From the text: as §2

[9] = system: Salmonella Enteritidis RKI 05/07992; experiment: Limit of detection of Salmonella enterica, Compound IIa versus MUCAP; type: cell-based; conditions: Compound IIa 10 μM versus MUCAP 0.1 mM, PBS, 15% DMSO
Method: Salmonella Enteritidis RKI 05/07992 was cultivated in Nutrient Broth (5 g/I peptone, 5 g/l NaCl, 2 g/L yeast extract, 1 g/l beef extract, pH 7.4) for 20 h (37° C., 150 rpm) and then serially diluted in phosphate buffered saline. Cell suspensions were mixed 1:1 v/v with phosphate buffered saline containing dimethyl sulfoxide (final concentration in assay 15%) and either Compound IIa (final concentration 10 μM) or 4-Methylumbelliferyl caprylate (MUCAP, final concentration 0.1 mM). Assays were performed in microplates, total liquid volume was 0.2 mL. Light emission and fluorescence (excitation 360 nm, emission 455 nm) were recorded with a SpectraMax M5 (Molecular Devices, Sunnyvale, Calif., USA) plate reader. Cell concentration of undiluted culture was estimated from optical density (600 nm).

[10] = system: Salmonella Typhimurium (D) ATCC 14028; experiment: Luminescence of culture samples after addition of Compound IIa; type: cell-based, Salmonella enterica ssp. I ser. Typhimurium; conditions: S.T., inoculation density 10^5 CFU/mL, 6 h cultivation, 10 μM
From the text: as §2

[11] = system: pig liver esterase; experiment: Enzymatic assay of pig liver esterase activity with Compound IIa; conditions: 62.5 μM, PBS pH 7.4, 10% v/v DMSO, 20 min measurement period
Method: The assay mix was pre-incubated for 20 min at room temperature, then 1:5 v/v of pig liver esterase solutions containing varying enzyme concentrations were added and luminescence was recorded for 20 min at room temperature with a SpectraMax M5 reader in luminescence mode. Assays were performed in a black microtiter plate with a total liquid volume of 0.25 mL.

[12] = system: Citrobacter freundii ATCC 8090; experiment: Luminescence of culture samples after addition of Compound IIa; type: cell-based; conditions: C.f., inoculation density 10^5 CFU/mL, 6 h cultivation, 10 μM
From the text: as §2

[13] = system: Escherichia coli ATCC 25922; experiment: as above; type: cell-based; conditions: E.c., inoculation density 10^5 CFU/mL, 6 h cultivation, 10 μM
From the text: as §2

[14] = system: Methicillin-resistant Staphylococcus aureus ATCC 33592 (MRSA); experiment: Luminescence development in cultures with and without oxacillin, Compound IVa; type: cell-based; conditions: oxacillin 20 mg/L, 6 h, 10 μM compound IVa as indicator
Method: (§3) Methicillin-resistant Staphylococcus aureus ATCC 33592 (MRSA), a strain which is resistant to penicillin derivatives such as methicillin and oxacillin, and methicillin-susceptible Staphylococcus aureus ATCC 29213 (MSSA) were cultivated overnight at 37° C. in nutrient broth (5 g/L peptone, 5 g/L sodium chloride, 2 g/L yeast extract, 1 g/L meat extract, pH 7.4) and diluted in sterile saline. MRSA and MSSA strains were inoculated at approx. 10^6 CFU/mL in nutrient broth containing compound IVa at a final concentration of 10 μM. For each strain, one culture was supplemented with oxacillin (20 mg/L final concentration) and one culture was left without antibiotics. Tube cultures were incubated at 37° C. and 150 rpm. A sterile control (nutrient broth with 10 μM of compound IVa) was incubated in parallel. Luminescence of culture samples (0.2 mL in a white microtiter plate) was recorded at regular intervals for 6 h with a SpectraMax M5 plate reader (FIG. 4: Luminescence development in cultures of MRSA and MSSA in the presence and absence of the antibiotic oxacillin). […] Growing and non-growing cultures could be distinguished after 1 h of incubation.

[15] = system: methicillin-susceptible Staphylococcus aureus ATCC 29213 (MSSA); experiment: as above; type: cell-based; conditions: oxacillin 20 mg/L, 6 h, 10 μM compound IVa as indicator
Method: as §3

[16] = L.m. 2, inoculation density 10^2 CFU/mL
[17] = L.m. 2, inoculation density 10^3 CFU/mL
[18] = L.m. 2, inoculation density 10^4 CFU/mL
[19] = L.m. 2, inoculation density 10^5 CFU/mL
[20] = S.E. 2, inoculation density 10^1 CFU/mL
[21] = S.E. 2, inoculation density 10^2 CFU/mL
[22] = S.E. 2, inoculation density 10^3 CFU/mL
[23] = S.E. 2, inoculation density 10^4 CFU/mL
[24] = S.E. 2, inoculation density 10^5 CFU/mL

For COC(=O)/C=C/c1ccc(C2(OC)OOC23C2CC4CC(C2)CC3C4)c(Cl)c1OCc1ccc(OP(=O)(O)O[C@@H]2[C@H](O)[C@H](O)[C@@H](O)[C@H](O)[C@H]2O)cc1 (some centres unmarked) [Compound IIIa], the “Signal to noise ratio (to sterile)” value [1] was 2.3, the “Mean RLU (n = 3)” value ([1]; 16-20 min after addition) was 33 RLU and the “Signal to noise ratio (to sterile)” value [2] was 0.5. The “Mean RLU (n = 3)” value ([2]; 16-20 min after addition) was 7 RLU, the “Signal to noise ratio (to sterile)” value [3] was 832 and the “Mean RLU (n = 3)” value ([3]; 16-20 min after addition) was 11913 RLU. The “Signal to noise ratio (to sterile)” value [4, 16] was 0.9, the “Mean RLU (n = 3)” value [4, 16] was 12 RLU and the “Signal to noise ratio (to sterile)” value [4, 17] was 2.2. For the same compound, the “Mean RLU (n = 3)” value [4, 17] was 31 RLU, the “Signal to noise ratio (to sterile)” value [4, 18] was 17 and the “Mean RLU (n = 3)” value [4, 18] was 242 RLU. For the same compound, the “Signal to noise ratio (to sterile)” value [4, 19] was 716, the “Mean RLU (n = 3)” value [4, 19] was 10258 RLU and the “Signal to noise ratio” value ([5]; PI-PLC added 5 · 10^−1 U/mL) was 862. The RLU ([5]; PI-PLC added 5 · 10^−1 U/mL, 10 μM) was 60265 RLU, the “Signal to noise ratio” value ([5]; PI-PLC added 5 · 10^−2 U/mL) was 512 and the RLU ([5]; PI-PLC added 5 · 10^−2 U/mL, 10 μM) was 35822 RLU. The “Signal to noise ratio” value ([5]; PI-PLC added 5 · 10^−3 U/mL) was 148, the RLU ([5]; PI-PLC added 5 · 10^−3 U/mL, 10 μM) was 10369 RLU and the “Signal to noise ratio” value ([5]; PI-PLC added 5 · 10^−4 U/mL) was 17. The RLU ([5]; PI-PLC added 5 · 10^−4 U/mL, 10 μM) was 1191 RLU.

In the case of COC1(c2ccc(/C=C/C(=O)O)c(B3OC(C)(C)C(C)(C)O3)c2)OOC12C1CC3CC(C1)CC2C3 (centres unmarked) [VIa], the “rate of increase of luminescence” value [6] is reported as “positive correlation with the glucose concentration”.

In the case of CCCCCCCC(=O)Oc1ccc(COc2c(/C=C/C(=O)O)ccc(C3(OC)OOC34C3CC5CC(C3)CC4C5)c2Cl)cc1 (centres unmarked) [Compound IIa], the “Signal to noise ratio (to sterile)” value [7, 20] is reported as 2, the “Mean RLU (n = 3)” value [7, 20] is reported as 1041 RLU and the “Signal to noise ratio (to sterile)” value [7, 21] is reported as 9. The “Mean RLU (n = 3)” value [7, 21] was 5100 RLU, the “Signal to noise ratio (to sterile)” value [7, 22] was 72 and the “Mean RLU (n = 3)” value [7, 22] was 40236 RLU. The “Signal to noise ratio (to sterile)” value [7, 23] was 275, the “Mean RLU (n = 3)” value [7, 23] was 154011 RLU and the “Signal to noise ratio (to sterile)” value [7, 24] was 693. The “Mean RLU (n = 3)” value [7, 24] was 387911 RLU, the “detectable inoculation density of Salmonella Enteritidis” value ([7]; after 6 h of incubation, signal-to-noise ratio of 2 relative to sterile controls) was 10 CFU/mL and the “Signal to noise ratio (to sterile)” value [8] was 408. For the same compound, the “Mean RLU (n = 3)” value ([8]; 27-30 min after addition) was 158262 RLU, the “limit of detection for Salmonella enterica, lower than with MUCAP” value [9] was 625 fold and the “Signal to noise ratio (to sterile)” value [10] was 283. For the same compound, the “Mean RLU (n = 3)” value ([10]; 27-30 min after addition) was 228202 RLU, the “relation of PI-PLC concentration and maximal RLU” value ([5]; 10 μM, 20 min measurement period) was “positive correlation over two orders of magnitude” and the “relation of pig liver esterase concentration and maximal RLU” value [11] was “positive linear correlation over two orders of magnitude”. The “Signal to noise ratio (to sterile)” value [12] was 12, the “Mean RLU (n = 3)” value ([12]; 27-30 min after addition) was 6480 RLU and the “Signal to noise ratio (to sterile)” value [13] was 6. For the same compound, the “Mean RLU (n = 3)” value ([13]; 27-30 min after addition) was 3504 RLU.

Cc1onc(-c2ccccc2)c1C(=O)N[C@@H]1C(=O)N2[C@@H]1SC(C)(C)[C@@H]2C(=O)O [oxacillin] was tested, and the “growth by time course of luminescence intensity” value [14] was “multiplied both in the presence and the absence of oxacillin” and the “growth by time course of luminescence intensity” value [15] was “showed an increase in luminescence only in the antibiotic-free culture”.
